How the values were obtained:
MCF-7 cells = assay: Cell viability of MCF-7 cells (MTT to formazan); conditions: MCF-7 (non-PPARγ expressing), 4 days, MTT (FIG. 13)
Procedure: FIG. 13. […] MCF-7 cells were treated with increasing concentrations of Troglitazone for 4 days and cell viability was assessed by the conversion of MTT to formazan as previously described. Data are the mean ±SEM from 2 studies done in triplicate.
A non-PPARγ expressing human breast cancer cell line, MCF-7 was tested.

HGL5 cells [1] = assay: Cell viability of HGL5 cells (MTT to formazan); conditions: HGL5, 4 days, MTT (FIG. 9)
Procedure: Cell viability was assessed by the conversion of MTT to formazan as previously described. Data are the mean ±SEM from 2 studies done in triplicate.
A similar assay was used as described above porcine granulosa cells, using MTT instead of MTS for conversion to formazan.

[2] = test system: polycystic ovary syndrome; conditions: women with PCO, 400 mg every day, cited from earlier work
P450scc = assay: Northern blot of P450scc mRNA in porcine granulosa cells; type: cell-based; conditions: 5 μg ml, 24 h (FIG. 5)
Text: FIG. 5. Scanned image of Northern blot Troglitazone effects on mRNA concentrations of P450scc.
Suppression of transcription of this enzyme would result in decreased progesterone production by granulosa cells.

HGL5 cells [3] = test system: HGL5 cells
Text: Progesterone was corrected for protein concentration. The data represent the mean ±SEM from 2 studies done in triplicate.

porcine granulosa cells [4] = assay: Progesterone production by cultured porcine granulosa cells; type: cell-based; conditions: for suppression of progesterone production, dose-response: serum-free medium, varying concentrations, 24 h (FIG. 1)
Text: FlG. 1. Dose-response of progesterone production suppression in porcine granulosa cells treated with Troglitazone and related thiazolidinedione compounds. […] . […] Progesterone concentrations were corrected for DNA content in treated cells and are presented as a percentage of basal corrected progesterone production.
FIG. 2. Time course of Troglitazone suppression of progesterone production by porcine granulosa cells. […] .
FIG. 4. Effects of 25-OH cholesterol on Troglitazone suppression of porcine granulosa cell progesterone production. […] .
Initial studies investigated the dose-response of Troglitazone and related compounds on progesterone production in cultures of porcine granulosa cells. Porcine granulosa cells were isolated from 1- to 5-mm follicles of ovaries from immature swine (60-70 kg) obtained from a local slaughterhouse (Urban et al. 1994). The cells were plated in Eagle's minimum essential medium and 3% fetal calf serum (FCS) at a concentration of 20-30 million cells 60-mm dish for 12-16 h to facilitate granulosa cell attachment to the plates. Monolayer cultures were maintained at 37° C. in 5% CO2 throughout the study. After granulosa cell attachment, medium containing the FCS was discarded and serum-free medium with varying concentrations of Troglitazone, pioglitazone and BRL 49653 was added for 24 h. One ml of medium was collected for measurement of progesterone by an assay previously described that uses the chromatographic separation of steroids to enhance specificity (Urban et al. 1994). […] . The time course for the suppression of progesterone was done in the same porcine granulosa cell culture system. […] . The suppression of progesterone production in porcine granulosa cells by Troglitazone could be due to effects of the drug on the supply of cholesterol to the mitochondria. Before investigating proteins in the pathway of cholesterol transport to the mitochondria, it was first tested whether Troglitazone would inhibit progesterone production when cells were co-treated with 25-OH cholesterol. This compound diffuses directly to the P-450 cholesterol side-chain cleavage enzyme (P-450scc) in the mitochondria and acts as a substrate for progesterone production (Veldhuis and Furlanetto, 1985). […] .

NWTb3 cells = assay: Cell viability of NWTb3 cells (MTT to formazan); conditions: NWTb3, 4 days, MTT (FIG. 11)
Procedure: FIG. 11. […] Cells were grown in 24 well-plates with high-glucose MEM 10% FCS. Cell viability was assessed by the conversion of MTT to formazan as previously described. Data are the mean ±SEM from 2 studies done in triplicate.

porcine granulosa cells [5] = assay: DNA content and total protein of treated porcine granulosa cells; type: cell-based
porcine granulosa cells [6] = assay: Cell viability of porcine granulosa cells (MTS to formazan); type: cell-based; conditions: even at the highest doses, 100 μg ml (FIG. 3)
Procedure: FIG. 3. Cell viability porcine granulosa cells during treatment with Troglitazone. Porcine granulosa cells were treated with various concentrations of Troglitazone and cell viability determined using a MTS dye oxidation method. This method is based on the ability of dehydrogenase enzymes found in metabolically active cells to oxidize MTS to formazan. This compound is soluble in tissue culture medium.
Therefore, cell viability was tested in these cells using a colorimetric assay that is dependent on the oxidation of MTS to formazan (absorbance measured at 490 nm ) by dehydrogenase enzymes found in metabolically active cells (Promega, Madison WI). This assay was verified in porcine granulosa cells by showing a linear increase in absorption with increasing cell density.

PPARα = target: T1, PPARα (Homo sapiens, UniProt Q07869); conditions: cited from earlier work
T1 sequence (Q07869 1-468): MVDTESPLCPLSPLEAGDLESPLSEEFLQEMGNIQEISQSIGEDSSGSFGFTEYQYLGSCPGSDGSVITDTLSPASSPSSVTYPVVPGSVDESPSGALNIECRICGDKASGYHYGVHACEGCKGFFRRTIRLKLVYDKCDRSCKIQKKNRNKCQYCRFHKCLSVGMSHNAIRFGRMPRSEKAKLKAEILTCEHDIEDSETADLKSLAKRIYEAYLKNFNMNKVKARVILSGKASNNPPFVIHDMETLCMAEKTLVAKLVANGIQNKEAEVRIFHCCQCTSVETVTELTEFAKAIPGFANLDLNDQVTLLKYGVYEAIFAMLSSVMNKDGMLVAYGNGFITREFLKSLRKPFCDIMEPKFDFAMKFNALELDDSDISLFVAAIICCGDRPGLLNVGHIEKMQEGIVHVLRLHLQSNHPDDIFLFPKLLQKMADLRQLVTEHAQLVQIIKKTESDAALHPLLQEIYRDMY

PPARγ [7] = conditions: cited from earlier work
PPARγ [8] = assay: EMSA of porcine granulosa cell nuclear extract with consensus PPRE (DR-1) oligonucleotide; type: cell-based; conditions: 15 μg nuclear extract protein, EMSA (FIG. 6)
Text: The nuclear extract was mixed with radioactively-labeled consensus PPRE as described in FIG. 6.

In the case of Cc1c(C)c2c(c(C)c1O)CCC(C)(COc1ccc(CC3SC(=O)NC3=O)cc1)O2 (single isomer, unassigned; (+)) [Troglitazone, (+)-5[[4-[(3,4-dihydro-6-hydroxy-2,5,7,8-tetramethyl-2H-1-benzopyran-2-yl)methoxy]phenyl]methyl]-2,4thiazolidinedione], the cell viability (MCF-7 cells) is listed as “decreased only with high concentrations”, the “concentrations causing a loss of cell viability” value (HGL5 cells [1]) is listed as no less than 0.5 µg·mL and the “women with ovulatory menses” value ([2]; 25 women studied) is listed as 2 of the 25. For the same molecule, the insulin resistance [2] was “reduced”, the “mRNA concentrations of P450scc” value (P450scc) was “did not suppress mRNA concentrations of P450scc” and the “progesterone production at single concentration” value (HGL5 cells [3]; 30 μg ml) was “inhibited progesterone production”. For the same molecule, the “biphasic response at lower concentrations” value (HGL5 cells [3]; HGL5, 48 h (FIG. 8)) was “lower concentrations actually increasing progesterone production”, the “concentrations at which progesterone production was suppressed” value (HGL5 cells [3]; HGL5, 48 h (FIG. 8)) was “greater than 10 μg” and the “suppression of progesterone at single concentration” value (porcine granulosa cells [4]; 5 μg ml, 24 h (FIG. 7B)) was “suppression of progesterone in these cells occurred”. For the same molecule, the “time at which progesterone production was suppressed” value (porcine granulosa cells [4]; 1 or 10 μg ml, up to 24 h (FIG. 2)) was no less than 4 h, the “effect of concentration on time of onset of suppression” value (porcine granulosa cells [4]; 1 vs 10 μg ml (FIG. 2)) was “did not affect the time of onset of suppression” and the “potency at suppressing progesterone production relative to the other thiazolidinediones” value (porcine granulosa cells [4]; 24 h dose-response (FIG. 1)) was “more potent at suppressing progesterone production than 2 other drugs”. For the same molecule, the “progesterone production in the presence of 25-OH cholesterol” value (porcine granulosa cells [4]; co-treatment with 25-OH cholesterol 30 μg ml, Troglitazone 1 and 10 μg ml, 24 h (FIG. 4)) was “suppressed progesterone production”, the “suppression of progesterone production, dose-response” value (“suppression … dose-response” for short) (porcine granulosa cells [4]) was “suppressed progesterone production by porcine granulosa cells in a dose-dependent fashion” and the “concentrations causing a loss of cell viability” value (NWTb3 cells) was no less than 1.0 µg/mL. For the same molecule, the “total protein concentrations versus control” value (porcine granulosa cells [5]; Troglitazone treatment groups vs control) was “lower”, the “DNA content versus control” value (porcine granulosa cells [5]; Troglitazone-treated vs control cells) was “not a significant decrease in DNA content” and the cell viability (porcine granulosa cells [6]) was “not a decrease in cell viability”.
In the case of CCCCC/C=C/C=C1/C(=O)C=C[C@@H]1C/C=C\CCCC(=O)O [15d-PGJ2, 15-deoxy-delta^12, 14-prostaglandin J2], the PPARα activation (PPARα) is given as “activated PPARα only at high concentrations” and the PPARγ-dependent adipogenesis (PPARγ [7]) is given as “activates PPARγ-dependent adipogenesis”.
With CN(CCOc1ccc(CC2SC(=O)NC2=O)cc1)c1ccccn1 (centres unmarked) [BRL 49653, 5-[4-[2-(N-methyl-N-(2-pyridyl)amino]ethoxy]benzyl]thiazolidine-2,4-dione] the “suppression … dose-response” value (porcine granulosa cells [4]) was “suppressed progesterone production by porcine granulosa cells in a dose-dependent fashion” and the “binding to the PPRE in granulosa cell nuclear extracts” value (PPARγ [8]) was “increased binding to the PPRE”.
For CCc1ccc(CCOc2ccc(CC3SC(=O)NC3=O)cc2)nc1 (centres unmarked) [pioglitazone, 5-[4-[2-(5-ethylpyridin-2-yl)ethoxyl]benzyl]thiazolidine-2,4-dione], the “suppression … dose-response” value (porcine granulosa cells [4]) was “suppressed progesterone production by porcine granulosa cells in a dose-dependent fashion”.
